Results reported in PubChem BioAssay AID1259407 (Chemical Carcinogenesis Research Information System (CCRIS), 2018).
Calls of active or inactive are those of the source. No rule for the calls is given here.

Tested on: CCRIS mutagenicity, Ames/micronucleus/aberration tests
Assay: CCRIS mutagenicity studies
[1] = Test System: AMES SALMONELLA TYPHIMURIUM, Strain/Indicator: TA98, Metabolic Activation: NONE, Method: PREINCUBATION
[2] = Test System: AMES SALMONELLA TYPHIMURIUM, Strain/Indicator: TA98, Metabolic Activation: NONE, Method: STANDARD PLATE
[3] = Test System: AMES SALMONELLA TYPHIMURIUM, Strain/Indicator: TA1535, Metabolic Activation: NONE, Method: STANDARD PLATE
[4] = Test System: AMES SALMONELLA TYPHIMURIUM, Strain/Indicator: TA1537, Metabolic Activation: NONE, Method: STANDARD PLATE
[5] = Test System: AMES SALMONELLA TYPHIMURIUM, Strain/Indicator: TA1537, Metabolic Activation: RAT, LIVER, S-9, AROCLOR 1254, Method: STANDARD PLATE
[6] = Test System: AMES SALMONELLA TYPHIMURIUM, Strain/Indicator: TA1538, Metabolic Activation: NONE, Method: STANDARD PLATE
[7] = Test System: AMES SALMONELLA TYPHIMURIUM, Strain/Indicator: TA98, Metabolic Activation: RAT, LIVER, S-9, AROCLOR 1254, Method: STANDARD PLATE

For `COc1cc(NC(C)CCCN)c2ncccc2c1` (stereo not drawn), the mutagenic call (Test System: AMES SALMONELLA TYPHIMURIUM, Strain/Indicator: TA97, Metabolic Activation: NONE, Method: PREINCUBATION) was “active; positive”, the mutagenic call (Test System: AMES SALMONELLA TYPHIMURIUM, Strain/Indicator: TA97, Metabolic Activation: RAT, LIVER, S-9, PHENOBARBITAL AND BETA-NAPHTHOFLAVONE, Method: PREINCUBATION) was “active; positive” and the mutagenic call (Test System: AMES SALMONELLA TYPHIMURIUM, Strain/Indicator: TA97A, Metabolic Activation: NONE, Method: STANDARD PLATE) was “inactive; negative”. For the same molecule, the mutagenic call (Test System: AMES SALMONELLA TYPHIMURIUM, Strain/Indicator: TA97A, Metabolic Activation: RAT LIVER S-9, PHENOBARBITAL, Method: STANDARD PLATE) was “inactive; negative”, the mutagenic call [1] was “inactive; negative” and the mutagenic call [2] was “active; positive”. The mutagenic call (Test System: AMES SALMONELLA TYPHIMURIUM, Strain/Indicator: TA98, Metabolic Activation: RAT, LIVER, S-9, AROCLOR 1254 OR PHENOBARBITOL, Method: STANDARD PLATE) was “active; positive”, the mutagenic call (Test System: AMES SALMONELLA TYPHIMURIUM, Strain/Indicator: TA98, Metabolic Activation: RAT, LIVER, S-9, PHENOBARBITAL AND BETA-NAPHTHOFLAVONE, Method: PREINCUBATION) was “inactive; negative” and the mutagenic call (Test System: AMES SALMONELLA TYPHIMURIUM, Strain/Indicator: TA98, Metabolic Activation: RAT, LIVER, S-9, Method: PREINCUBATION) was “inactive; negative”. The mutagenic call (Test System: AMES SALMONELLA TYPHIMURIUM, Strain/Indicator: TA100, Metabolic Activation: NONE, Method: PREINCUBATION) was “inactive; negative”, the mutagenic call (Test System: AMES SALMONELLA TYPHIMURIUM, Strain/Indicator: TA100, Metabolic Activation: RAT LIVER S-9, PHENOBARBITAL, Method: STANDARD PLATE) was “inactive; negative” and the mutagenic call (Test System: AMES SALMONELLA TYPHIMURIUM, Strain/Indicator: TA100, Metabolic Activation: RAT, LIVER, S-9, AROCLOR 1254 OR PHENOBARBITOL, Method: STANDARD PLATE) was “active; positive”. The mutagenic call (Test System: AMES SALMONELLA TYPHIMURIUM, Strain/Indicator: TA100, Metabolic Activation: RAT, LIVER, S-9, PHENOBARBITAL AND BETA-NAPHTHOFLAVONE, Method: PREINCUBATION) was “inactive; negative”, the mutagenic call (Test System: AMES SALMONELLA TYPHIMURIUM, Strain/Indicator: TA100, Metabolic Activation: RAT, LIVER, S-9, Method: PREINCUBATION) was “inactive; negative” and the mutagenic call (Test System: AMES SALMONELLA TYPHIMURIUM, Strain/Indicator: TA102, Metabolic Activation: NONE, Method: PREINCUBATION) was “inactive; negative”. For the same molecule, the mutagenic call (Test System: AMES SALMONELLA TYPHIMURIUM, Strain/Indicator: TA102, Metabolic Activation: NONE, Method: STANDARD PLATE) was “inactive; negative”, the mutagenic call (Test System: AMES SALMONELLA TYPHIMURIUM, Strain/Indicator: TA102, Metabolic Activation: RAT LIVER S-9, PHENOBARBITAL, Method: STANDARD PLATE) was “inactive; negative” and the mutagenic call (Test System: AMES SALMONELLA TYPHIMURIUM, Strain/Indicator: TA102, Metabolic Activation: RAT, LIVER, S-9, PHENOBARBITAL AND BETA-NAPHTHOFLAVONE, Method: PREINCUBATION) was “inactive; negative”. The mutagenic call (Test System: AMES SALMONELLA TYPHIMURIUM, Strain/Indicator: TA104, Metabolic Activation: NONE, Method: STANDARD PLATE) was “inactive; negative”, the mutagenic call (Test System: AMES SALMONELLA TYPHIMURIUM, Strain/Indicator: TA104, Metabolic Activation: RAT LIVER S-9, PHENOBARBITAL, Method: STANDARD PLATE) was “inactive; negative” and the mutagenic call [3] was “inactive; negative”. For the same molecule, the mutagenic call (Test System: AMES SALMONELLA TYPHIMURIUM, Strain/Indicator: TA1535, Metabolic Activation: RAT, LIVER, S-9, AROCLOR 1254 OR PHENOBARBITOL, Method: STANDARD PLATE) was “inactive; negative”, the mutagenic call (Test System: AMES SALMONELLA TYPHIMURIUM, Strain/Indicator: TA1537, Metabolic Activation: NONE, Method: PREINCUBATION) was “active; positive” and the mutagenic call [4] was “inactive; negative”. For the same molecule, the mutagenic call (Test System: AMES SALMONELLA TYPHIMURIUM, Strain/Indicator: TA1537, Metabolic Activation: RAT, LIVER, S-9, AROCLOR 1254, Method: PREINCUBATION) was “active; positive”, the mutagenic call [5] was “active; positive” and the mutagenic call (Test System: AMES SALMONELLA TYPHIMURIUM, Strain/Indicator: TA1537, Metabolic Activation: RAT, LIVER, S-9, AROCLOR 1254 OR PHENOBARBITOL, Method: STANDARD PLATE) was “inactive; negative”. The mutagenic call [6] was “inactive; negative”, the mutagenic call (Test System: AMES SALMONELLA TYPHIMURIUM, Strain/Indicator: TA1538, Metabolic Activation: RAT, LIVER, S-9, AROCLOR 1254 OR PHENOBARBITOL, Method: STANDARD PLATE) was “inactive; negative” and the mutagenic call (Test System: E.COLI, Strain/Indicator: WP2UVRA/PKM101, Metabolic Activation: NONE, Method: PREINCUBATION) was “inactive; negative”. The mutagenic call (Test System: E.COLI, Strain/Indicator: WP2UVRA/PKM101, Metabolic Activation: RAT LIVER S-9, PHENOBARBITAL AND 5,6-BENZOFLAVONE, Method: PREINCUBATION) was “inactive; negative”.
In the case of `NC(Cc1ccc(Cl)cc1)C(=O)O` (stereo not drawn), the mutagenic call (Test System: AMES SALMONELLA TYPHIMURIUM, Strain/Indicator: TA98, Metabolic Activation: NONE) was “inactive; negative”, the mutagenic call (Test System: AMES SALMONELLA TYPHIMURIUM, Strain/Indicator: TA100, Metabolic Activation: NONE) was “inactive; negative” and the mutagenic call (Test System: AMES SALMONELLA TYPHIMURIUM, Strain/Indicator: TA1535, Metabolic Activation: NONE) was “inactive; negative”. For the same molecule, the mutagenic call (Test System: AMES SALMONELLA TYPHIMURIUM, Strain/Indicator: TA1537, Metabolic Activation: NONE) was “inactive; negative”, the mutagenic call (Test System: B. SUBTILIS, Strain/Indicator: BD190 REC, Metabolic Activation: NONE, Method: SPOT TEST) was “inactive; negative” and the mutagenic call (Test System: E.COLI, Strain/Indicator: WP6 POLA, Metabolic Activation: NONE, Method: SPOT TEST) was “inactive; negative”.
`O=C1NC(=O)C(C(Cl)Cl)=C1Cl` was tested, and the mutagenic call (Test System: AMES SALMONELLA TYPHIMURIUM, Strain/Indicator: TA100, Metabolic Activation: NONE, Method: STANDARD PLATE) was “active; positive”.
With `Oc1cc(O)c2c(c1)O[C@H](c1cc(O)c(O)c(O)c1)[C@H](O)C2` the mutagenic call (End Point: In vitro chromosomal aberrations, Test System: Chinese hamster (CHL/IU) cells, Metabolic Activation: None) was “active; positive (structural changes: gaps, breaks, aberrations)”, the mutagenic call (Test System: Ames Salmonella typhimurium, Strain/Indicator: TA102, Metabolic Activation: None, Method: Preincubation) was “inactive; negative” and the mutagenic call (Test System: Ames Salmonella typhimurium, Strain/Indicator: TA102, Metabolic Activation: Rat, Liver, S-9, Aroclor 1254 in 0.154 M KCl, Method: Preincubation) was “inactive; negative”. The mutagenic call (Test System: E. coli, Strain/Indicator: WP2 uvrA/pKM101, Metabolic Activation: None, Method: Preincubation) was “inactive; negative”.
In the case of `Cn1c(N)nc2c3ccc(=O)[nH]c3ccc21`, the mutagenic call [1] was “active; positive”, the mutagenic call [2] was “active; positive” and the mutagenic call (Test System: AMES SALMONELLA TYPHIMURIUM, Strain/Indicator: TA98, Metabolic Activation: RAT, LIVER, S-9, AROCLOR 1254 (0.5-3 MG/ML), Method: PREINCUBATION) was “active; positive”. For the same molecule, the mutagenic call [7] was “active; positive”.
For `CN(C)c1ccc(N=Nc2cccc(CCl)c2)cc1`, the mutagenic call (Test System: AMES SALMONELLA TYPHIMURIUM, Strain/Indicator: TA98, Metabolic Activation: RAT, LIVER, S-9, POLYCHLORINATED BIPHENYLS, Method: PREINCUBATION) was “active; positive” and the mutagenic call (Test System: AMES SALMONELLA TYPHIMURIUM, Strain/Indicator: TA100, Metabolic Activation: RAT, LIVER, S-9, POLYCHLORINATED BIPHENYLS, Method: PREINCUBATION) was “active; positive”.
`Nc1ccc(O)c2c1C(=O)c1c(O)ccc(N)c1C2=O` was tested, and the mutagenic call [2] was “active; positive”, the mutagenic call [7] was “active; positive” and the mutagenic call [3] was “inactive; negative”. The mutagenic call (Test System: AMES SALMONELLA TYPHIMURIUM, Strain/Indicator: TA1535, Metabolic Activation: RAT, LIVER, S-9, AROCLOR 1254, Method: STANDARD PLATE) was “inactive; negative”, the mutagenic call [4] was “active; positive” and the mutagenic call [5] was “active; positive”. For the same molecule, the mutagenic call [6] was “active; positive”, the mutagenic call (Test System: AMES SALMONELLA TYPHIMURIUM, Strain/Indicator: TA1538, Metabolic Activation: RAT, LIVER, S-9, AROCLOR 1254, Method: STANDARD PLATE) was “active; positive” and the mutagenic call (Test System: AMES SALMONELLA TYPHIMURIUM, Strain/Indicator: TA1978, Metabolic Activation: NONE, Method: STANDARD PLATE) was “inactive; negative”. The mutagenic call (Test System: AMES SALMONELLA TYPHIMURIUM, Strain/Indicator: TA1978, Metabolic Activation: RAT, LIVER, S-9, AROCLOR 1254, Method: STANDARD PLATE) was “inactive; negative”.
